Assay results published in patent publication US9745284B2, “2-pyridyloxy-4-ether orexin receptor antagonists” (MERCK SHARP & DOHME CORP., priority 2013, dated 2017).

What was measured:
[1] = biological target: human orexin-2 receptor (Homo sapiens (Human), UniProt O43614); experiment: FLIPR Ca2+ flux assay, orexin-2 receptor; format: cell-based; conditions: CHO cells expressing human orexin-2 receptor; agonist 70 pM Ala-6,12 orexin-A; read-out: hOX2R FLIPR IC50
Method: The utility of the compounds in accordance with the present invention as orexin receptor OX1R and/or OX2R antagonists may be readily determined without undue experimentation by methodology well known in the art, including the “FLIPR Ca^2+ Flux Assay” (Okumura et al., Biochem. Biophys. Res. Comm. 280:976-981, 2001). In a typical experiment the OX1 and OX2 receptor antagonistic activity of the compounds of the present invention was determined in accordance with the following experimental method. For intracellular calcium measurements, Chinese hamster ovary (CHO) cells expressing the rat orexin-1 receptor or the human orexin-2 receptor, are grown in Iscove's modified DMEM containing 2 mM L-glutamine, […], 1% hypoxanthine-thymidine supplement, 100 U/ml penicillin, 100 μg/ml streptomycin and 10% heat-inactivated fetal calf serum (FCS). The cells are seeded at 20,000 cells/well into Becton-Dickinson black 384-well clear bottom sterile plates coated with poly-D-lysine. All reagents were from GIBCO-Invitrogen Corp. The seeded plates are incubated overnight at 37° C. and 5% CO2. Ala-6,12 human orexin-A as the agonist is prepared as a 1 mM stock solution in 1% bovine serum albumin (BSA) and diluted in assay buffer (HBSS containing 20 mM HEPES, 0.1% BSA and 2.5 mM probenecid, pH7.4) for use in the assay at a final concentration of 70 pM. Test compounds are prepared as 10 mM stock solution in DMSO, then diluted in 384-well plates, first in DMSO, then assay buffer. On the day of the assay, cells are washed 3 times with 100 μl assay buffer and then incubated for 60 min (37° C., 5% CO2) in 60 μl assay buffer containing 1 μM Fluo-4AM ester, 0.02% pluronic acid, and 1% BSA. The dye loading solution is then aspirated and cells are washed 3 times with 100 μl assay buffer. 30 μl of that same buffer is left in each well. Within the Fluorescent Imaging Plate Reader (FLIPR, Molecular Devices), test compounds are added to the plate in a volume of 25 μl, incubated for 5 min and finally 25 μl of agonist is added. Fluorescence is measured for each well at 1 second intervals for 5 minutes and the height of each fluorescence peak is compared to the height of the fluorescence peak induced by 70 pM Ala-6,12 orexin-A with buffer in place of antagonist. For each antagonist, IC50 value (the concentration of compound needed to inhibit 50% of the agonist response) is determined. Alternatively, compound potency can be assessed by a radioligand binding assay (described in Bergman et. al. Bioorg. Med. Chem. Lett. 2008, 18, 1425-1430) in which the inhibition constant (Ki) is determined in membranes prepared from CHO cells expressing either the OX1 or OX2 receptor. The intrinsic orexin receptor antagonist activity of a compound which may be used in the present invention may be determined by these assays.

[2] = biological target: hOX1R (Homo sapiens, UniProt O43613); experiment: FLIPR Ca2+ flux assay, orexin-1 receptor; format: cell-based; conditions: CHO cells expressing orexin-1 receptor; agonist 70 pM Ala-6,12 orexin-A

Sequence of human orexin-2 receptor (O43614 whole entry): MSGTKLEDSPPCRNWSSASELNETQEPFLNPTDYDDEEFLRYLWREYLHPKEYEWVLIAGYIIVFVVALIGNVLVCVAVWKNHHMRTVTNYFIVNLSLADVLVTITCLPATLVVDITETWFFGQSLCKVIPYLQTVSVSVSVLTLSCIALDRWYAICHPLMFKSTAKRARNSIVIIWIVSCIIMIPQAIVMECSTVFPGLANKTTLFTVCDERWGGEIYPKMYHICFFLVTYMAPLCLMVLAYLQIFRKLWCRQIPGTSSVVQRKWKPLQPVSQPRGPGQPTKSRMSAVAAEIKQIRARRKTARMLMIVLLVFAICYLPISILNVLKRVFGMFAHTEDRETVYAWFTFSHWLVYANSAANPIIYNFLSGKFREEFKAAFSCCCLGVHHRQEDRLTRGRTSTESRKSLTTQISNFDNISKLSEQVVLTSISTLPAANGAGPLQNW

SMILES	IC50 [1] [nM]	IC50 [2] [nM]
C[C@@H]1CC[C@@H](Oc2cc(OCC(F)F)ccn2)CN1C(=O)c1ccccc1-n1ncnn1 [Example 29, 4-(2,2-difluoroethoxy)-2-{[(3R,6R)-6-methyl-1-{[2-(2H-tetrazol-2-yl)phenyl]carbonyl}piperidin-3-yl]oxy}pyridine]	29	8070
C[C@@H]1CC[C@@H](Oc2cc(OCC(F)F)ccn2)CN1C(=O)c1ccccc1-n1nccn1 [Example 27, (2-(2H-1,2,3-triazol-2-yl)phenyl)((2R,5R)-5-((4-(2,2-difluoroethoxy)pyridin-2-yl)oxy)-2-methylpiperidin-1-yl)methanone]	12	1420
COc1ccc(C(=O)N2C[C@H](Oc3cc(OC(C)C)ccn3)CC[C@H]2C)c(-n2nccn2)n1 [Example 25, 6-methoxy-3-{[(2R,5R)-2-methyl-5-{[4-(1-methylethoxy)pyridin-2-yl]oxy}piperidin-1-yl]carbonyl}-2-(2H-1,2,3-triazol-2-yl)pyridine]	110	10000
CC(C)Oc1ccnc(O[C@@H]2CC[C@@H](C)N(C(=O)c3ccccc3-n3nccn3)C2)c1 [Example 5, 4-(1-Methylethoxy)-2-{[(3R,6R)-6-methyl-1-{[2-(2H-1,2,3-triazol-2-yl)phenyl]carbonyl}piperidin-3-yl]oxy}pyridine]	15.1	669
COc1ccnc(O[C@@H]2CC[C@@H](C)N(C(=O)c3ccsc3-c3ncccn3)C2)c1 [Example 58, ((2R,5R)-5-((4-Methoxypyridin-2-yl)oxy)-2-methylpiperidin-1-yl)(2-(pyrimidin-2-yl)thiophen-3-yl)methanone]	21	1110
CCOc1ccnc(O[C@@H]2CC[C@@H](C)N(C(=O)c3ccccc3-n3ncnn3)C2)c1 [Example 8, 4-ethoxy-2-{[(3R,6R)-6-methyl-1-{[2-(2H-tetrazol-2-yl)phenyl]carbonyl}piperidin-3-yl]oxy}pyridine]	35.4	2010
C[C@@H]1CC[C@@H](Oc2cc(OCC(F)F)ccn2)CN1C(=O)c1ncccc1-n1nccn1 [Example 33, 2-{[(2R,5R)-5-{[4-(2,2-difluoroethoxy)pyridin-2-yl]oxy}-2-methylpiperidin-1-yl]carbonyl}-3-(2H-1,2,3-triazol-2-yl)pyridine]	71	> 10000
C[C@@H]1CC[C@@H](Oc2cc(OC(F)F)ccn2)CN1C(=O)c1ccccc1C1(C#N)CC1 [Example 56, 1-(2-{[(2R,5R)-5-{[4-(difluoromethoxy)pyridin-2-yl]oxy}-2-methylpiperidin-1-yl]carbonyl}phenyl) cyclopropane-carbonitrile]	11	1140
CC(C)Oc1ccnc(O[C@@H]2CC[C@@H](C)N(C(=O)c3ccccc3-c3ncccn3)C2)c1 [Example 44, 2-(2-{[(2R,5R)-2-Methyl-5-{[4-(1-methylethoxy)pyridin-2-yl]oxy}piperidin-1-yl]carbonyl}phenyl)pyrimidine]	67	1640
CCOc1ccnc(O[C@@H]2CC[C@@H](C)N(C(=O)c3ccsc3-c3ncccn3)C2)c1 [Example 65, ((2R,5R)-5-(4-Ethoxypyridin-2-yloxy)-2-methylpiperidin-1-yl)(2-(pyrimidin-2-yl)thiophen-3-yl)methanone]	26	899
C[C@@H]1CC[C@@H](Oc2cc(OCc3ccccc3)ccn2)CN1C(=O)c1ccccc1-n1nccn1 [Example 4, 4-(benzyloxy)-2-{[(3R,6R)-6-methyl-1-{[2-(2H-1,2,3-triazol-2-yl)phenyl]carbonyl}piperidin-3-yl]oxy}pyridine]	59.4	1850
COc1ccnc(O[C@@H]2CC[C@@H](C)N(C(=O)c3ccsc3-n3nccn3)C2)c1 [Example 59, 4-methoxy-2-{[(3R,6R)-6-methyl-1-{[2-(2H-1,2,3-triazol-2-yl)thiophen-3-yl]carbonyl}piperidin-3-yl]oxy}pyridine]	11	–
